# Patent US9296687B2, “Modulators of HSP70/DnaK function and methods of use thereof” (The Trustees of the University of Pennsylvania, priority 2008, dated 2016)
# Entries after “also recorded” stand apart in the source; their conditions may differ.
# Assays:
# HSP70 [1] = assay: Capture of HA-tagged HSP70 constructs from transfected H1299 cells with biotinylated compound; assay type: binding, human; conditions: biotinylated PES
# Description: FIG. 1. PES Binds to HSP70. (A) Whole cell extracts (WCE) prepared from A875 and BCL-xL over-expressing U2OS human osteosarcoma cells (BX-U2OS) cells, treated with Biotin or Biotin-PES (B-PES), were captured using NeutrAvidin agarose resins. HSP70-family proteins were identified as the major product in the excised band of ˜70 kDa shown in both Coomassie gels. (B and C) WCE were prepared from the cell lines indicated following 24 h treatment with 20 μM Biotin or B-PES and examined for the expression of proteins indicated (left panel of B and C) by western blot analysis; note that different exposure times were used to visualize these proteins. […] (D) In vitro evidence for an interaction between B-PES and HSP70. Full-length human HSP70 and human HSP90 proteins were in vitro translated in the presence of ^35S-methionine, mixed with B-PES coupled to NeutrAvidin resins, and eluted using 100 mM DTT. […] (F) Non-transformed human IMR90 fibroblasts or H1299 lung carcinoma cells were treated with the indicated concentrations of PES for 24 h and cell viability was determined by MTT assays. […]
# The free amide group of PES-Cl was biotinylated and added to HA-tagged HSP70-transfected H1299 cells. […] The complexes were pulled down with NeutrAvidin beads, eluted with 100 mM DTT treatments, separated with SDS-PAGE and detected with anti-HA antibody (Millipore) by Western blot. […]
# E. coli = assay: Growth curves and morphology of E. coli at 35° C. or 43° C.; assay type: cell-based
# Description: FIG. 3. PES and E. coli. (A) Identification of DnaK as Biotin-PES (B-PES) interacting protein in bacteria by liquid chromatography-tandem mass spectrometry, as described herein below. (B) The amino acid sequence of DnaK (SEQ ID NO: 7); the residues detected by mass spectrometry are shown in bold and underlined. (C) Growth curves of E. coli treated with different concentrations of PES either at 35° C. or 43° C. […] (D) Bacterial morphology (phase contrast microscopy) following treatment of the cells with PES at the indicated temperatures. Note evidence of filamentation and aggregation at higher concentrations of PES, especially at 43° C.
# [2] = tested on: H1299 human lung carcinoma cells; assay: MTT cell viability assay; assay type: cell-based
# Description: (§1) Cell viability assays were performed using an MTT (methyl thiazolyl tetrazolium) colorimetric assay (Roche Applied Science, Cat. No. 11 465 007 001), with the following modifications. Briefly, cells (1×10^4) were plated into 24 well-assay plates in 0.5 ml media and allowed to attach overnight. […] After the incubation period, 50 μl of the water-soluble MTT labeling reagent [3-[4,5-dimethylthiazol-2-yl]-2,5-diphenyl tetrazolium bromid] were added to the cells, and the cells were incubated for 4 h in a humidified chamber at 37° C. with 5% CO2. The metabolized insoluble formazan crystals were then solubilized using 0.5 ml of the Solubilization solution (10% SDS in 0.01M HCl) per well, and the resulting colored solutions were spectrophotometrically quantified at an absorbance of 570 nm.
# [3] = tested on: WI38 human fetal lung fibroblasts; assay: MTT cell viability assay; assay type: cell-based; conditions: except at the highest concentration tested (20 μM)
# Description: as §1
# [4] = tested on: normal human lung fibroblasts (IMR90); assay: MTT cell viability assay; assay type: cell-based; conditions: 24 h, except at the highest concentrations used
# Description: as §1
# FADU cells = assay: Sulforhodamine B colorimetric assay, PES plus cisplatin; assay type: cell-based, human; conditions: 0-100 μM, 1:1 ratio, 72 h
# Description: FIG. 20. PES and cisplatin act synergistically to kill cancer cells. […] Experiments were done in triplicate per condition.
# Cells (2×10^4) were plated into 96 well plates in 200 μl media and allowed to attach overnight. Cells were then treated with the indicated doses of PES, cisplatin or PES+Cisplatin. After 72 hr incubation period, cells were washed in PBS and 100 μl of ice cold 10% TCA was added for 1 hr at 4° C. Plates were washed four times with slow-running tap water and air-dried at room temperature. 100 μl of 0.057% SRB solution was added to the cells and incubated for 30 min at room temperature. Fixed cells were quickly rinsed four times with 1% acetic acid to remove unbound dye. The protein-bound dye was solubilized using 200 μl of 10 mM Tris base solution (pH 10.5) per well, and the wells were spectrophotometrically quantified at an absorbance of 540 nm. This methodology is identical to that in Shekan et al, JNCI 82:1107 (1990).
# HSP70 [5] = molecular target: HSP70 (Homo sapiens, UniProt P0DMV8); assay: Capture of HA-tagged HSP70 constructs from transfected H1299 cells with biotinylated compound; assay type: binding; set-up: expressed in transfected cells; host or cells: H1299; conditions: biotinylated compound, 6 hours
# HSP70 (Homo sapiens, UniProt P0DMV8), sequence (P0DMV8 2-641): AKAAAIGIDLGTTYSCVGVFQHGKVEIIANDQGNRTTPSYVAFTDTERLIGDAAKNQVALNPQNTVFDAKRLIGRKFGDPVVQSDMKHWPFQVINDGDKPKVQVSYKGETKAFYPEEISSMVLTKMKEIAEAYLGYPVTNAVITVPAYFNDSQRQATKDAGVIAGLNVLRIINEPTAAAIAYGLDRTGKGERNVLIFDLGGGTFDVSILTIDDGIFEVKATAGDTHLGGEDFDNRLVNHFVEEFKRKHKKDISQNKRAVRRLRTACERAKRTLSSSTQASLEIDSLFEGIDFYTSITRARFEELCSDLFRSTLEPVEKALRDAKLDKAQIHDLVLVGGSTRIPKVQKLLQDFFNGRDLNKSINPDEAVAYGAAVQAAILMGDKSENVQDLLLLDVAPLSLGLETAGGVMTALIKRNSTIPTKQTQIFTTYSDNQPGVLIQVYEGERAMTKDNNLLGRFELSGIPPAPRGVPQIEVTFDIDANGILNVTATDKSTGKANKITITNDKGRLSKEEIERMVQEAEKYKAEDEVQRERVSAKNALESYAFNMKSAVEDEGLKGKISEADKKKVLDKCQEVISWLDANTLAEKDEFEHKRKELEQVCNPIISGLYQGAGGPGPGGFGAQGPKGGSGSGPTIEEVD
# Description: FIG. 1. PES Binds to HSP70. (A) Whole cell extracts (WCE) prepared from A875 and BCL-xL over-expressing U2OS human osteosarcoma cells (BX-U2OS) cells, treated with Biotin or Biotin-PES (B-PES), were captured using NeutrAvidin agarose resins. HSP70-family proteins were identified as the major product in the excised band of ˜70 kDa shown in both Coomassie gels. (B and C) WCE were prepared from the cell lines indicated following 24 h treatment with 20 μM Biotin or B-PES and examined for the expression of proteins indicated (left panel of B and C) by western blot analysis; note that different exposure times were used to visualize these proteins. […] (D) In vitro evidence for an interaction between B-PES and HSP70. Full-length human HSP70 and human HSP90 proteins were in vitro translated in the presence of ^35S-methionine, mixed with B-PES coupled to NeutrAvidin resins, and eluted using 100 mM DTT. The resulting DTT eluates were separated by polyacrylamide gel electrophoresis (SDS-PAGE) and visualized by autoradiography. (E) B-PES interacts with the C-terminal region of HSP70. H1299 cells were transfected with the indicated hemagglutinin (HA)-tagged constructs and exposed to B-PES. B-PES containing complexes were captured by NeutrAvidin Resins, eluted following 100 mM DTT treatment, and immunoblotted with anti-HA antibody following SDS-PAGE. (F) Non-transformed human IMR90 fibroblasts or H1299 lung carcinoma cells were treated with the indicated concentrations of PES for 24 h and cell viability was determined by MTT assays. (G) WCE were prepared from the cell lines indicated following 5 hr treatment with 20 μM PES or B-PES and examined for the expression of proteins indicated (left panel) by western blot analysis; note that different exposure times were used to visualize these proteins. B-PES-containing complexes were captured by NeutrAvidin resins, eluted following 50 mM DTT treatment, and immunoblotted using the indicated antibodies.
# The free amide group of PES-Cl was biotinylated and added to HA-tagged HSP70-transfected H1299 cells. The treatment of the cells occurred for 6 hours. The complexes were pulled down with NeutrAvidin beads, eluted with 100 mM DTT treatments, separated with SDS-PAGE and detected with anti-HA antibody (Millipore) by Western blot.
# Docking studies were performed using the C-terminal HSP70 crystal structure (FIG. 32) to elucidate the PES binding site in silico (FIG. 33). Blind docking methods were used in the program AutoDock to locate potential PES binding sites. These methods use a course grid docking approach, encompassing the entire protein, to identify favorable binding sites using a known binding ligand, and are examined by hand to support the AutoDock data. […]
smiles,measurement,setting,value
"NS(=O)(=O)C#Cc1ccccc1 [PES, 2-Phenylethynesulfonamide]",binding to HSP70 mutants L558R and Y611S,HSP70 [1],failed to bind PES
same,response of the bacteria to elevated temperatures,E. coli,"slow growth, filamentation, and reduced viability"
same,cell proliferation of E. coli,"E. coli; increasing concentrations, 35° C. or 43° C.",inhibited in a dose-dependent fashion
same,cell viability,[2],effective at killing HI299 lung carcinoma cells; also recorded: dose-dependent loss of viability
same,PES-induced cell death after silencing of HSP70,"[2]; HSP70 shRNA, 20 μM PES 24 h",rescued PES-induced cell death
same,cell viability,[3],no decrease in cell viability
same,cell viability,[4],minimal effect
same,combination effect with cisplatin,FADU cells,acts synergistically with cisplatin
same,interaction with HA-tagged HSP70,HSP70 [5],interact with HSP70
